From EP4624470A1, “YOHIMBINE DERIVATIVE, AND PREPARATION METHOD THEREFOR AND PHARMACEUTICAL COMPOSITION AND USE THEREOF” (Shanghai Institute of Materia Medica, Chinese Academy of …, priority 2022, dated 2024)

What was measured:
α2A-AR = biological target: T1, α2A-AR (Homo sapiens, UniProt P08913); assay: α2A-AR antagonist assay (calcium flux, Fluo-4, FlexStation II); assay type: cell-based; details: antagonistic activity against agonist UK14304 in cells stably expressing α2A-AR/Ga16
T1 construct: expressed in transfected cells; stably expressing α2A-AR/Gα16
T1 sequence (P08913 1-465): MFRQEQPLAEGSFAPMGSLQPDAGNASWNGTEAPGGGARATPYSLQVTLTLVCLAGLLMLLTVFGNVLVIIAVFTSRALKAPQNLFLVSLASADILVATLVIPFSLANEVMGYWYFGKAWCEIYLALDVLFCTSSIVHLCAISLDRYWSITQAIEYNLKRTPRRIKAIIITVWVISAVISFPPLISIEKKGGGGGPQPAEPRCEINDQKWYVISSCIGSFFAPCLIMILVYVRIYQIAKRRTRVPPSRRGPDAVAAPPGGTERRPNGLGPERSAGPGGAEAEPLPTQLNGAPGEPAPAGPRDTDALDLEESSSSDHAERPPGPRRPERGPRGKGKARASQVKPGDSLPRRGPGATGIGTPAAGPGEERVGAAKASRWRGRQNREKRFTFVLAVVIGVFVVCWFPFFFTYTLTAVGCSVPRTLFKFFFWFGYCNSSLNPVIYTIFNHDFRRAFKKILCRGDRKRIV
Excerpt: By establishing a cell line co-transfected with the target receptor and Ga16, the receptor can be activated to cause the activation of Gα16 protein, which in turn activates phospholipase C (PLC) to produce IP3 and DAG. IP3 can bind to the IP3 receptors on the endoplasmic reticulum and mitochondria in the cell, thereby causing the release of intracellular calcium. Therefore, measuring the changes in intracellular calcium can be used as a method to detect the activation state of the target receptor. Fluo-4/AM is a calcium fluorescent probe indicator used to measure calcium ions. As a non-polar lipid-soluble compound, after entering the cell, the AM group dissociates under the action of cell lipases and releases Fluo-4; since Fluo-4 is a polar molecule that is not easy to pass through the lipid bilayer membrane, it can keep in the cell for a long time. Finally, the level of Ga protein activation can be reflected by measuring the excited fluorescence intensity.
Before the test, the test compound was dissolved in DMSO to prepare a stock solution, which was diluted with culture medium to the required concentration when used.

[1] = Tissue distribution test in mice; assay type: in vivo; details: gavage 10 mg/kg
Method: Mice were fasted for more than 12 h and had free access to water. Table 3 Experimental Scheme for tissue distribution of Compound C27 in mice
Mice were fasted for more than 12 h and had free access to water.
• (1) Tissue distribution test in mice: The animals in each group were anesthetized and killed 2 h after administration. The brain, pancreas, heart, liver, and kidney tissues were collected by dissection, washed with physiological saline, and stored in a -20 °C refrigerator for testing. At the same time, 0.3 mL of whole blood was collected and placed in an EDTA-K2 anticoagulant tube. The blood was separated by centrifugation at 11,000 rpm for 5 min and stored in a -20 °C refrigerator for testing.
The concentration of unchanged drug in plasma and tissues was determined.
(2) Tissue distribution test of compound C27 in mice: At corresponding time points (0.25, 2 and 8 h) after gavage administration, mice were bled to death through the abdominal aorta. Brain, heart, liver, lung, pancreas and kidney tissues were immediately collected by dissection, and part of the plasma was collected. The operation was carried out in an ice water bath.
Centrifugation conditions: 11000 rpm for 5 min to separate plasma (about 200 µL).

type 2 diabetic mice = assay: Blood sugar lowering effect in high-sugar and high-fat diet-induced type 2 diabetes mouse model; assay type: in vivo, C57BL\6J mice
Excerpt: A high-sugar and high-fat diet-induced type 2 diabetes mouse model was used in this experiment, and the following tests were mainly conducted: • 1) Effect of single intraperitoneal administration on basal blood glucose, glucose tolerance and insulin sensitivity in diabetic mice. • 2) Effect of single gavage administration on glucose tolerance and insulin sensitivity in diabetic mice. • 3) Effect of continuous chronic intraperitoneal administration on basal blood glucose in diabetic mice.
C57BL\6J mice were fed with a high-sugar and high-fat diet for 3 consecutive months. The test experiment was conducted after the average body weight of the mice stabilized at more than 50g and the average basal blood sugar value stabilized at more than 12mmol/L.
Blood glucose level was mainly measured by measuring tail vein blood using a blood glucose meter. For the test of basal blood glucose effect, the mice were on a normal diet. The basal blood glucose value before administration was first measured, and then a single intraperitoneal injection or a single gavage of the yohimbine derivative C19 (10 mg/kg mouse body weight) was given, and the venous blood glucose level was measured 15, 30, 60, 90, and 120 minutes after administration. The mouse glucose tolerance test was performed after the mouse has eaten for 16 hours overnight. 30 minutes after a single intraperitoneal injection or a single gavage of the yohimbine derivative C19 (10 mg/kg mouse body weight), glucose (1.5 g/kg) was injected intraperitoneally, and the venous blood glucose level was measured 15, 30, 60, 90, and 120 minutes later. Mouse insulin sensitivity was tested after the mouse has eaten for 6 hours. 30 minutes after a single intraperitoneal injection or single gavage of yohimbine derivative C19 (10 mg/kg mouse body weight), insulin (1 UI/kg) was injected intraperitoneally, and the venous blood glucose level was measured 15, 30, 60, 90, and 120 minutes later. For the effect of chronic administration on blood glucose levels, diabetic mice were intraperitoneally injected with yohimbine derivative C19 (10 mg/kg) every day for 12 consecutive days, and the basal blood glucose level of mice under free diet was measured every day before drug injection. The control group was injected with normal saline or gavage.

[2] = relative ratio of tissue distribution concentration to blood concentration

N#Cc1ccc(Cc2noc([C@@H]3[C@H]4C[C@H]5c6[nH]c7ccccc7c6CCN5C[C@@H]4CC[C@@H]3O)n2)cc1 [Compound C19]
IC50 (α2A-AR): 0.3 to 0.5 µM
pancreatic distribution [1]: good pancreatic distribution
brain tissue distribution compared with yohimbine [1, 2]: lower brain tissue distribution than yohimbine
brain tissue distribution, times lower than that of yohimbine [1, 2]: about forty times lower
basal blood glucose level (type 2 diabetic mice; chronic intraperitoneal injection, 10 mg/kg once a day, 12 consecutive days (Figure 8)): stably maintain the basal blood sugar level of diabetic mice at a state closer to the normal level
glucose tolerance (type 2 diabetic mice; single gavage administration, 10 mg/kg (Figure 6)): improve glucose tolerance
insulin sensitivity (type 2 diabetic mice; single gavage administration, 10 mg/kg (Figure 7)): increase insulin sensitivity
basal blood glucose level (type 2 diabetic mice; single intraperitoneal injection, 10 mg/kg (Figure 3)): significantly reduce the high blood sugar level of diabetic mice
glucose tolerance (type 2 diabetic mice; single intraperitoneal injection, 10 mg/kg (Figure 4)): improve glucose tolerance
insulin sensitivity (type 2 diabetic mice; single intraperitoneal injection, 10 mg/kg (Figure 5)): increase insulin sensitivity
